Patent publication US20090170812A1, “Transcription factor modulating compounds and methods of use thereof” (priority 2006, published 2009)

Tests used:
LcrF (VirF) = LcrF (VirF) (Yersinia pestis, UniProt P28808); test: biochemical; format: binding, Y. pseudotuberculosis
ExsA = biological target: T1, ExsA (Pseudomonas aeruginosa, UniProt P26993); test: In vitro activity of Mar inhibitors against ExsA: cell-free DNA binding assay; details: purified ExsA from P. aeruginosa, inhibition of DNA binding in vitro
T1 construct: made in house
T1 sequence (P26993 1-278): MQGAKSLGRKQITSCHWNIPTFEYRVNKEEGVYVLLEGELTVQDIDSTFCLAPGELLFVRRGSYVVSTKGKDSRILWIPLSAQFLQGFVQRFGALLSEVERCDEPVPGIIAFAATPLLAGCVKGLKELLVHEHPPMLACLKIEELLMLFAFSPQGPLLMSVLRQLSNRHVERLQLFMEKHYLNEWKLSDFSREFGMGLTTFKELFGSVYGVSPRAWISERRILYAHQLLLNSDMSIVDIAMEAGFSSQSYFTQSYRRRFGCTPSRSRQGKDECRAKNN

[1] = tested on: Yersinia pseudotuberculosis
P. aeruginosa = test: Whole cell assay: cytotoxicity of P. aeruginosa toward J774 cells (CytoTox 96, LDH release); details: percent cytotoxicity of treated P. aeruginosa toward J774 cells

Sequence of LcrF (VirF) (P28808 whole entry, looked up): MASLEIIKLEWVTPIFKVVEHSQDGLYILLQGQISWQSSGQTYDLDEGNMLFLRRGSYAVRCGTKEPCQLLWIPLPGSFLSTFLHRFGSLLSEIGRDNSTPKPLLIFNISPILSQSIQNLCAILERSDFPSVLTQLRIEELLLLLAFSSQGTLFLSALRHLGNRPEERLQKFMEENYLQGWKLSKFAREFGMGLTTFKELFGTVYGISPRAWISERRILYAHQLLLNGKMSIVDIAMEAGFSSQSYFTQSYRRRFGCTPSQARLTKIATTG

Row | Compound | EC50 (LcrF (VirF)) [µM] | EC50 (ExsA) [µM] | Cytotoxicity at 50 μg/mL Yersinia [1] | Cytotoxicity at 50 μg/mL Pseudomonas (P. aeruginosa)
1 | COc1cc(C(=O)Nc2ccc(-c3nc4ccc([N+](=O)[O-])cc4n3O)cc2)ccc1F [AB] | 10.1 to 25 | 10.1 to 25 | * (key: *: percent cytotoxicity above 75% at 50 μg/mL; **: cytotoxicities below 75% at 50 μg/mL) | * (percent cytotoxicities above 75% at 50 mg/mL)
2 | O=C(Nc1ccc(-c2nc3ccc([N+](=O)[O-])cc3n2O)cc1)c1ccccc1O [AC] | 10.1 to 25 | 10.1 to 25 | * (key: *: percent cytotoxicity above 75% at 50 μg/mL; **: cytotoxicities below 75% at 50 μg/mL) | * (percent cytotoxicities above 75% at 50 mg/mL)
3 | CCc1cc(-c2nc3ccc([N+](=O)[O-])cc3n2O)ccc1NC(=O)/C=C/c1ccc(C)cc1 [AE] | < 10 | < 10 | * (key: *: percent cytotoxicity above 75% at 50 μg/mL; **: cytotoxicities below 75% at 50 μg/mL) | * (percent cytotoxicities above 75% at 50 mg/mL)
4 | CC(=O)c1ccc(C(=O)Nc2ccc(-c3nc4ccc([N+](=O)[O-])cc4n3O)nc2)cc1 [AG] | > 25.1 | 10.1 to 25 | * (key: *: percent cytotoxicity above 75% at 50 μg/mL; **: cytotoxicities below 75% at 50 μg/mL) | * (percent cytotoxicities above 75% at 50 mg/mL)
5 | O=C(Nc1ccc(-c2nc3ccc([N+](=O)[O-])cc3n2O)c(F)c1)c1ccc(F)cc1 [AH] | 10.1 to 25 | 10.1 to 25 | * (key: *: percent cytotoxicity above 75% at 50 μg/mL; **: cytotoxicities below 75% at 50 μg/mL) | * (percent cytotoxicities above 75% at 50 mg/mL)
6 | COc1cc(NC(=O)c2ccc(F)cc2)ccc1-c1nc2ccc([N+](=O)[O-])cc2n1O [AI] | > 25.1 | 10.1 to 25 | * (key: *: percent cytotoxicity above 75% at 50 μg/mL; **: cytotoxicities below 75% at 50 μg/mL) | * (percent cytotoxicities above 75% at 50 mg/mL)
7 | O=C(Nc1ccc(-c2nc3ccc([N+](=O)[O-])cc3n2O)cn1)c1ccc(F)cc1 [AJ] | 10.1 to 25 | 10.1 to 25 | * (key: *: percent cytotoxicity above 75% at 50 μg/mL; **: cytotoxicities below 75% at 50 μg/mL) | * (percent cytotoxicities above 75% at 50 mg/mL)
8 | O=C(/C=C/c1ccc(F)c(CP(=O)(O)O)c1)Nc1ccc(-c2nc3ccc([N+](=O)[O-])cc3n2O)cc1 [AM] | 10.1 to 25 | 10.1 to 25 | * (key: *: percent cytotoxicity above 75% at 50 μg/mL; **: cytotoxicities below 75% at 50 μg/mL) | * (percent cytotoxicities above 75% at 50 mg/mL)
9 | O=C(/C=C/c1ccc(F)cc1)Nc1ccc(-c2nc3ccc([N+](=O)[O-])cc3n2O)cn1 [AN] | < 10 | < 10 | * (key: *: percent cytotoxicity above 75% at 50 μg/mL; **: cytotoxicities below 75% at 50 μg/mL) | * (percent cytotoxicities above 75% at 50 mg/mL)
10 | O=C(/C=C/c1ccc(F)cc1)Nc1ccc(-c2nc3ccc([N+](=O)[O-])cc3n2O)nc1 [AO] | 10.1 to 25 | < 10 | * (key: *: percent cytotoxicity above 75% at 50 μg/mL; **: cytotoxicities below 75% at 50 μg/mL) | * (percent cytotoxicities above 75% at 50 mg/mL)
11 | O=C(/C=C/c1ccc(F)cc1F)Nc1ccc(-c2nc3ccc([N+](=O)[O-])cc3n2O)nc1 [AP] | < 10 | < 10 | * (key: *: percent cytotoxicity above 75% at 50 μg/mL; **: cytotoxicities below 75% at 50 μg/mL) | * (percent cytotoxicities above 75% at 50 mg/mL)
12 | O=C(/C=C/c1ccc(F)cc1F)Nc1ccc(-c2nc3ccc([N+](=O)[O-])cc3n2O)cn1 [AQ] | < 10 | < 10 | * (key: *: percent cytotoxicity above 75% at 50 μg/mL; **: cytotoxicities below 75% at 50 μg/mL) | * (percent cytotoxicities above 75% at 50 mg/mL)
13 | CCOP(=O)(Cc1cc(/C=C/C(=O)Nc2ccc(-c3nc4ccc([N+](=O)[O-])cc4n3O)cc2)ccc1F)OCC [AT] | < 10 | < 10 | * (key: *: percent cytotoxicity above 75% at 50 μg/mL; **: cytotoxicities below 75% at 50 μg/mL) | * (percent cytotoxicities above 75% at 50 mg/mL)
14 | O=C(/C=C/c1ccc(F)cc1)Nc1ccc(-c2nc3ncc([N+](=O)[O-])cc3n2O)c(F)c1 [AV] | < 10 | < 10 | * (key: *: percent cytotoxicity above 75% at 50 μg/mL; **: cytotoxicities below 75% at 50 μg/mL) | * (percent cytotoxicities above 75% at 50 mg/mL)
15 | O=C(/C=C/c1ccc(F)cc1)Nc1ccc(-c2nc3ccc([N+](=O)[O-])cc3n2O)c(F)c1 [AW] | < 10 | 10.1 to 25 | ** (key: *: percent cytotoxicity above 75% at 50 μg/mL; **: cytotoxicities below 75% at 50 μg/mL) | * (percent cytotoxicities above 75% at 50 mg/mL)
16 | CC(=O)c1ccc(C(=O)Nc2ccc(-c3nc4cc(C)c([N+](=O)[O-])cc4n3O)cc2)cc1 [BE] | < 10 | < 10 | * (key: *: percent cytotoxicity above 75% at 50 μg/mL; **: cytotoxicities below 75% at 50 μg/mL) | * (percent cytotoxicities above 75% at 50 mg/mL)
17 | COc1cc(NC(=O)c2ccc(C(C)=O)cc2)ccc1-c1nc2ccc([N+](=O)[O-])cc2n1O [BG] | > 25.1 | 10.1 to 25 | * (key: *: percent cytotoxicity above 75% at 50 μg/mL; **: cytotoxicities below 75% at 50 μg/mL) | ** (cytotoxicities below 75% at 50 mg/mL)
18 | COc1cc(NC(=O)/C=C/c2ccc(F)cc2)ccc1-c1nc2ccc([N+](=O)[O-])cc2n1O [BH] | 10.1 to 25 | 10.1 to 25 | * (key: *: percent cytotoxicity above 75% at 50 μg/mL; **: cytotoxicities below 75% at 50 μg/mL) | * (percent cytotoxicities above 75% at 50 mg/mL)
19 | O=C(Nc1ccc(-c2nc3ccc([N+](=O)[O-])cc3n2O)cc1)C1=Cc2ccccc2OC1 [BM] | 10.1 to 25 | 10.1 to 25 | * (key: *: percent cytotoxicity above 75% at 50 μg/mL; **: cytotoxicities below 75% at 50 μg/mL) | * (percent cytotoxicities above 75% at 50 mg/mL)
20 | O=C(/C=C/c1ccc(F)cc1)Nc1ccc(-c2nc3ccc([N+](=O)[O-])cc3n2OCP(=O)(O)O)cc1 [Compound AL, (2-{4-[(E)-3-(4-Fluoro-phenyl)-acryloylamino]-phenyl}-6-nitro-benzoimidazol-1-yloxymethyl)-phosphonic Acid] | < 10 | < 10 | ** (key: *: percent cytotoxicity above 75% at 50 μg/mL; **: cytotoxicities below 75% at 50 μg/mL) | * (percent cytotoxicities above 75% at 50 mg/mL)
21 | CCOP(=O)(COn1c(-c2ccc(NC(=O)/C=C/c3ccc(F)cc3)cc2)nc2ccc([N+](=O)[O-])cc21)OCC [Compound AS, (2-{4-[(E)-3-(4-Fluoro-phenyl)-acryloylamino]-phenyl}-6-nitro-benzoimidazol-1-yloxymethyl)-phosphonic Acid Diethyl Ester] | > 25.1 | 10.1 to 25 | * (key: *: percent cytotoxicity above 75% at 50 μg/mL; **: cytotoxicities below 75% at 50 μg/mL) | * (percent cytotoxicities above 75% at 50 mg/mL)
22 | O=C(/C=C/c1ccc(F)cc1)Nc1ccc(-c2nc3ccc([N+](=O)[O-])cc3n2O)cc1F [Compound AZ, (E)-N-[2-Fluoro-4-(1-hydroxy-6-nitro-1H-benzoimidazol-2-yl)-phenyl]-3-(4-fluoro-phenyl)-acrylamide] | 10.1 to 25 | 10.1 to 25 | * (key: *: percent cytotoxicity above 75% at 50 μg/mL; **: cytotoxicities below 75% at 50 μg/mL) | * (percent cytotoxicities above 75% at 50 mg/mL)
23 | N#Cc1ccc2nc(-c3ccc(NC(=O)/C=C/c4ccccc4)cc3)n(O)c2c1 [Compound A] | 10.1 to 25 | 10.1 to 25 | * (key: *: percent cytotoxicity above 75% at 50 μg/mL; **: cytotoxicities below 75% at 50 μg/mL) | * (percent cytotoxicities above 75% at 50 mg/mL)
24 | CC(=O)c1ccc(C(=O)Nc2ccc(-c3nc4ccc([N+](=O)[O-])cc4n3O)cc2F)cc1 [Compound BA, 4-Acetyl-N-[2-fluoro-4-(1-hydroxy-6-nitro-1H-benzoimidazol-2-yl)-phenyl]-benzamide] | 10.1 to 25 | < 10 | * (key: *: percent cytotoxicity above 75% at 50 μg/mL; **: cytotoxicities below 75% at 50 μg/mL) | * (percent cytotoxicities above 75% at 50 mg/mL)
25 | Cc1cc2nc(-c3ccc(NC(=O)/C=C/c4ccc(F)cc4)cc3)n(O)c2cc1[N+](=O)[O-] [Compound BC, (E)-3-(4-Fluoro-phenyl)-N-[4-(1-hydroxy-5-methyl-6-nitro-1H-benzoimidazol-2-yl)-phenyl]-acrylamide] | < 10 | < 10 | ** (key: *: percent cytotoxicity above 75% at 50 μg/mL; **: cytotoxicities below 75% at 50 μg/mL) | ** (cytotoxicities below 75% at 50 mg/mL)
